The results in this text go back to patent EP4583874B1, “MULTITARGET NUCLEAR RECEPTOR LIGANDS BASED ON 2-(4-(QUINOLIN-2-YLOXY)PHENOXY)PROPANOIC ACID AND 2-(4-(QUINOXALIN-2-YLOXY)PHENOXY)PROPANOIC ACID FOR THE TREATMENT OF METABOLIC AND LIVER DISEASES” (CHARLES UNIVERSITY, FACULTY OF PHARMACY IN HRADEC KRALOVE, priority 2022, dated 2024).

Structures are written as SMILES. Like-named read-outs stand apart in the source and are kept apart here.

By Emax is commonly meant the maximal effect, on the per cent scale that the assay sets.

Holding throughout (type): cell-based
Experiment [1] concerns the target T1, human PPARα (Homo sapiens, UniProt Q07869).
T1 construct: DNA constructs encoding human LBD domains of human PPARα, PPARγ, of LXRα (pGAL4-PPARα, pGAL4-PPARγ, pGAL4-LXRα); expressed in transfected cells; host or cells: HepG2
T1 sequence (Q07869 239-466 limits assumed): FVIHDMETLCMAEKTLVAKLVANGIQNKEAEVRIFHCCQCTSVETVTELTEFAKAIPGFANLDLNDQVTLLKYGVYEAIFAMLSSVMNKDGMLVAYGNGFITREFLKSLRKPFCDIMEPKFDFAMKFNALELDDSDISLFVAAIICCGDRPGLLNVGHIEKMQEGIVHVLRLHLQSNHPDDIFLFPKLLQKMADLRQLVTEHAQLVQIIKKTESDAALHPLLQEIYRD
The experiment is described as follows: PPARα responsive luciferase reporter gene assay (pGAL4-PPARα / pGL5-UAS 9x) in HepG2 cells. Conditions: relative activation to fenofibrate 10 µM (100%), HepG2, 24 h, negative value indicates inverse agonism. The source says:
Bezafibrate, GW7647 and WY14643 are known PPARα ligands. […] GW3965 is known high-affinity LXRα ligand. […]
(§1) In HepG2 cells, luciferase gene reporter assays have been performed with the transiently transfected reporter gene luciferase construct with the UAS yeast binding site interacting with GAL4 protein (pGL5-UAS 9x, Promega). DNA constructs encoding human LBD domains of human PPARα, PPARγ, of LXRα (pGAL4-PPARα, pGAL4-PPARγ, pGAL4-LXRα) have been cotransfected with the reporter construct. For FXR, FXRE-luc construct with FXR response elements upstream of Firefly luciferase has been used together with an expression construct for human FXR for HepG2 cells transfection. HepG2 cells were then treated with compounds of the invention for 24 h.
In general terms: Reporter assays use an easily measured gene product as a stand-in for the process of interest.

Experiment [2] has as its target T2, human LXRα (Homo sapiens, UniProt Q13133).
T2 construct: DNA constructs encoding human LBD domains of human PPARα, PPARγ, of LXRα (pGAL4-PPARα, pGAL4-PPARγ, pGAL4-LXRα); expressed in transfected cells; host or cells: HepG2
T2 sequence (Q13133 209-447 limits assumed): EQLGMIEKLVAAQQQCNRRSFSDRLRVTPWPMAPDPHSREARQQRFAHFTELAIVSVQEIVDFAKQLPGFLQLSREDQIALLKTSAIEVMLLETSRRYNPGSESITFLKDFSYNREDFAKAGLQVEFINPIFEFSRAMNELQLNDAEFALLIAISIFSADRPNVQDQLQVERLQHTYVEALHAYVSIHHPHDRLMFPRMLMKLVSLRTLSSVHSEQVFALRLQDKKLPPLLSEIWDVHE
The experiment is described as follows: LXRα luciferase reporter gene assay, inhibition of activation by GW3965 (pGAL4-LXRα / pGL5-UAS 9x) in HepG2 cells. The protocol:
Bezafibrate, GW7647 and WY14643 are known PPARα ligands. […] GW3965 is known high-affinity LXRα ligand.
Inverse agonistic/antagonistic activities of tested compounds to LXRα receptor activated by the LXRα agonist GW3965(10 µM). […] Negative value indicates inverse agonism.
as §1

For experiment [3], the target named is T3, human PPARγ (Homo sapiens, UniProt P37231).
T3 construct: DNA constructs encoding human LBD domains of human PPARα, PPARγ, of LXRα (pGAL4-PPARα, pGAL4-PPARγ, pGAL4-LXRα); expressed in transfected cells; host or cells: HepG2
T3 sequence (P37231 238-503 limits assumed): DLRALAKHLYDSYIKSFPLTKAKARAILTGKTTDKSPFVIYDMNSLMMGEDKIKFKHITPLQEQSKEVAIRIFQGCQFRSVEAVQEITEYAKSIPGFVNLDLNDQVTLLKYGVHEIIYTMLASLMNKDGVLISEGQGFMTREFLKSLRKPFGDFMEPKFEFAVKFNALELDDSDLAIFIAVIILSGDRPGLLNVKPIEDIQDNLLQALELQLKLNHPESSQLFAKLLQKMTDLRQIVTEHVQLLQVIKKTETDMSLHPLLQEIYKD
Kind of experiment: PPARγ luciferase reporter gene assay (pGAL4-PPARγ / pGL5-UAS 9x) in HepG2 cells. To be noted: HepG2, 24 h.

For experiment [4], the target named is T4, human FXR (Homo sapiens, UniProt Q96RI1).
T4 construct: expressed in transfected cells; host or cells: HepG2
T4 sequence (Q96RI1 1-486): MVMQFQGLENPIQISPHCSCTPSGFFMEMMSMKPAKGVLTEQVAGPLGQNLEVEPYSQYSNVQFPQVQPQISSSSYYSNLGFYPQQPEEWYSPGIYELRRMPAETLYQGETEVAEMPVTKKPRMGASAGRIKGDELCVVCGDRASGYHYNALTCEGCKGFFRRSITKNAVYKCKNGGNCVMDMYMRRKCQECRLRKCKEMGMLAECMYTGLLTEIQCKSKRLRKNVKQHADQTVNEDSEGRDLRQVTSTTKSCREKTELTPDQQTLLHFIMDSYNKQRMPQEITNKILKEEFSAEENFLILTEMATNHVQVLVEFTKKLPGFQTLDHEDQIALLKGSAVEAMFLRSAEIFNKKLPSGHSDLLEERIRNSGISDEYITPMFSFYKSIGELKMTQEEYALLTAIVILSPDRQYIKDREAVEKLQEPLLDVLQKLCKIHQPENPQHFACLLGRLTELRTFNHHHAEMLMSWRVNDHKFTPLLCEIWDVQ
The experiment is described as follows: FXR responsive luciferase reporter gene assay (FXRE-luc + human FXR expression construct) in HepG2 cells. Conditions: HepG2, 24 h.
Text: as §1

Experiment [5] concerns the target T5, TGR5 (Homo sapiens, UniProt Q8TDU6).
T5 sequence (Q8TDU6 1-330): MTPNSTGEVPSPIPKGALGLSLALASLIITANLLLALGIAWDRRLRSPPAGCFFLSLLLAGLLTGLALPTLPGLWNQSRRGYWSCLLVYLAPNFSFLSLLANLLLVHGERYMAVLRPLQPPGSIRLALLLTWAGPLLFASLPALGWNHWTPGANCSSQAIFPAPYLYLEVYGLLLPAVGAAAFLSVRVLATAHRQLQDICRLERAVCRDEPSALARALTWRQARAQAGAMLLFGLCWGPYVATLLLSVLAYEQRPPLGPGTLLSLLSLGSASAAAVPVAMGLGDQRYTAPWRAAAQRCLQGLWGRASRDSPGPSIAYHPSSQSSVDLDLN
The experiment is described as follows: TGR5 luciferase reporter assay. Conditions: relative activation to LCA 10 µM (100%), negative value indicates inverse agonism.

The mark [6] stands for this setting: HepG2, 24 h; read-out: LXRα antagonism.

Regarding `C[C@@H](Oc1ccc(Oc2ccc3c(C(F)(F)F)cccc3n2)cc1)C(=O)O` [compound 43, (R)-2-(4-((5-(Trifluoromethyl)quinolin-2-yl)oxy)phenoxy)propanoic acid], the Emax at 10 µM in experiment [1] is -5%; in experiment [3] it was -1%; in experiment [4], 1%. In addition, the inhibition at 10 µM in experiment [2] (setting [6]) came to 48%.

Consider `C[C@@H](Oc1ccc(Oc2cnc3cc(Cl)ccc3n2)cc1)C(=O)O` [compound 64, (R)-2-(4-((6-Chloroquinoxalin-2-yl)oxy)phenoxy)propanoic acid], for which the inhibition at 10 µM in experiment [2] (HepG2, 24 h, read-out: LXRα antagonism) was determined as 17%. The Emax at 10 µM in experiment [4] amounted to 1%.

Consider `Cc1ccc2ncc(Oc3ccc(O[C@H](C)C(=O)O)cc3)nc2c1` [compound 66, (R)-2-(4-((7-Methylquinoxalin-2-yl)oxy)phenoxy)propanoic acid], for which the Emax at 10 µM in experiment [1] is 1%; in experiment [3] it was 2%; in experiment [4] it was -3%.

`C[C@@H](Oc1ccc(Oc2ccc3ccc(F)cc3n2)cc1)C(=O)O` [compound 41, (R)-2-(4-((7-Fluoroquinolin-2-yl)oxy)phenoxy)propanoic acid]: the figures for the Emax at 10 µM in experiment [1], in experiment [3] and in experiment [4] were 1%, 7% and 1%, respectively.

Consider `CCc1ccc2ccc(Oc3ccc(O[C@H](C)C(=O)O)cc3)nc2c1` [compound 44, (R)-2-(4-((7-Ethylquinolin-2-yl)oxy)phenoxy)propanoic acid], for which the figures for the Emax at 10 µM in experiment [1], in experiment [3] and in experiment [4] were 0%, 4% and 15%, respectively. Also, the inhibition at 10 µM in experiment [2] (setting [6]) stood at 7%.

With `CCOC(=O)[C@@H](C)Oc1ccc(Oc2ccc3c(Cl)cccc3n2)cc1` [compound 76, Ethyl (R)-2-(4-((5-chloroquinolin-2-yl)oxy)phenoxy)propanoate], the inhibition at 10 µM in experiment [2] (setting [6]) amounted to 51%. Besides, in experiment [4], the Emax at 10 µM amounted to 25%.

For `C[C@@H](Oc1ccc(Oc2cnc3ccc(I)cc3n2)cc1)C(=O)O` [compound 68, (R)-2-(4-((7-Iodoquinoxalin-2-yl)oxy)phenoxy)propanoic acid], the Emax at 10 µM in experiment [1] was 49%; in experiment [5], 11%; in experiment [3], 9%; in experiment [4] it was -3%.

As for `C[C@@H](Oc1ccc(Oc2cnc3ccc(Br)cc3n2)cc1)C(=O)O` [compound 65, (R)-2-(4-((7-Bromoquinoxalin-2-yl)oxy)phenoxy)propanoic acid], the Emax at 10 µM in experiment [1] is 69%; in experiment [5] it was -3%; in experiment [3], 2%; in experiment [4] it was -2%.

As to `CC(Oc1ccc(NCc2ccc3c(Cl)cc(Cl)cc3n2)cc1)C(=O)O` (stereo not drawn) [compound 84, 2-(4-(((5,7-Dichloroquinolin-2-yl)methyl)amino)phenoxy)propanoic acid], the Emax at 10 µM was 0% in experiment [1], 1% in experiment [3] and -2% in experiment [4]. In experiment [2] (setting [6]), the inhibition at 10 µM stood at 5%.

In the case of `Cc1cc(C)c2ccc(Oc3ccc(O[C@H](C)C(=O)O)cc3)nc2c1` [compound 45, (R)-2-(4-((5,7-Dimethylquinolin-2-yl)oxy)phenoxy)propanoic acid], the Emax at 10 µM came to 0% in experiment [1], 17% in experiment [3] and 7% in experiment [4]. Moreover, the inhibition at 10 µM in experiment [2] (setting [6]) is 43%.

With `CC(C)(Oc1ccc(Oc2ccc3ccc(Cl)cc3n2)cc1)C(=O)O` [compound 55, 2-(4-((7-Chloroquinolin-2-yl)oxy)phenoxy)-2-methylpropanoic acid], the Emax at 10 µM in experiment [1] is 1%; in experiment [5], -15%; in experiment [3], -2%; in experiment [4], 0%.

Consider `C[C@@H](Oc1ccc(Oc2ccc3cc(Cl)ccc3n2)cc1)C(=O)O` [compound 36, (R)-2-(4-((6-Chloroquinolin-2-yl)oxy)phenoxy)propanoic acid], for which the Emax at 10 µM is -5% in experiment [1], 23% in experiment [3] and 19% in experiment [4]. The inhibition at 10 µM in experiment [2] (setting [6]) stood at 36%.

Take `C[C@@H](Oc1ccc(Oc2ccc3ccc([N+](=O)[O-])cc3n2)cc1)C(=O)O` [compound 50, (R)-2-(4-((7-nitroquinolin-2-yl)oxy)phenoxy)propanoic acid]: the Emax at 10 µM in experiment [1] came to 87%; in experiment [4], 0%.

On to `CCOC(=O)C(C)Oc1ccc(NCc2ccc3c(Cl)cccc3n2)cc1` (stereo not drawn) [compound 85, Ethyl 2-(4-(((5-chloroquinolin-2-yl)methyl)amino)phenoxy)propanoate], for which the Emax at 10 µM in experiment [1] was 1%; in experiment [5], 30%; in experiment [3], -6%; in experiment [4] it was -1%.

Take `C[C@@H](Oc1ccc(Oc2cnc3ccc(Cl)cc3n2)cc1)C(=O)O` [compound 63, (R)-2-(4-((7-Chloroquinoxalin-2-yl)oxy)phenoxy)propanoic acid]: the Emax at 10 µM in experiment [1] was 0%; in experiment [5], 4%; in experiment [3], 2%; in experiment [4], -3%.

Regarding `CC(=O)Nc1ccc2ncc(Oc3ccc(OCC(=O)O)cc3)nc2c1` [compound 73, 2-(4-((7-Acetamidoquinoxalin-2-yl)oxy)phenoxy)acetic acid], the Emax at 10 µM in experiment [1] is 59%; in experiment [5], 20%; in experiment [3], 1%; in experiment [4], 6%.

Turning to `CC(Oc1ccc(Nc2cnc3ccc(Cl)cc3n2)cc1)C(=O)O` (stereo not drawn) [compound 80, 2-(4-((7-chloroquinoxalin-2-yl)amino)phenoxy)propanoic acid], the Emax at 10 µM in experiment [1] was 0%; in experiment [4], -1%. For the same molecule, in experiment [2] (setting [6]), the inhibition at 10 µM stood at 66%.

Regarding `C[C@@H](Oc1ccc(Oc2cnc3ccccc3n2)cc1)C(=O)O` [compound 62], the Emax at 10 µM in experiment [1] was determined as 0%; in experiment [5], 43%; in experiment [3] it was 2%; in experiment [4], 7%.

For `CC(=O)Nc1ccc2ncc(Oc3ccc(O[C@H](C)C(=O)O)cc3)nc2c1` [compound 69, (R)-2-(4-((7-Acetamidoquinoxalin-2-yl)oxy)phenoxy)propanoic acid], the Emax at 10 µM came to 46% in experiment [1], 1% in experiment [3] and 3% in experiment [4].

Take `COc1ccc2ncc(Oc3ccc(O[C@H](C)C(=O)O)cc3)nc2c1` [compound 70, (R)-2-(4-((7-Methoxyquinoxalin-2-yl)oxy)phenoxy)propanoic acid]: the results for the Emax at 10 µM in experiment [1], in experiment [3] and in experiment [4] were 10%, 0% and -2%, respectively.
